Data published in US20140038822A1, “USE OF SUBSTITUTED SPIROCYCLIC SULFONAMIDOCARBOXYLIC ACIDS, CARBOXYLIC ESTERS THEREOF, CARBOXAMIDES THEREOF AND CARBONITRILES THEREOF OR SALTS THEREOF FOR ENHANCEMENT OF STRESS TOLERANCE IN PLANTS” (BAYER INTELLECTUAL PROPERTY GMBH, priority 2010, published 2014).

Columns and labels:
Type in all cases: in vivo
[1] = tested on: ZEAMX (Zea mays); experiment: Drought stress test on crop plants in greenhouse, spray application, efficacy vs untreated stressed control (ZEAMX); settings: dosage 250 g/ha, efficacy = percentage reduction in the intensity of damage vs untreated stressed control, mean of three results
Protocol: (§1) Seeds of monocotyledonous and dicotyledonous crop plants were placed in sandy loam in wood-fiber pots, covered with soil and cultivated in a greenhouse under good growth conditions. The test plants were treated at the early leaf stage (BBCH10 BBCH13). To ensure uniform water supply before commencement of stress, the potted plants were supplied with the maximum amount of water immediately beforehand by dam irrigation and, after application, transferred in plastic inserts in order to prevent subsequent, excessively rapid drying. The inventive compounds, formulated in the form of wettable powders (WP), wettable granules (WG), suspension concentrates (SC) or emulsion concentrates (EC), were sprayed onto the green parts of the plants as an aqueous suspension at an equivalent water application rate of […] with addition of 0.2% wetting agent (agrotin). Substance application is followed immediately by stress treatment of the plants (cold or drought stress). For cold stress treatment, the plants were kept under the following controlled conditions: […]
(§2) After the recovery phase had ended, the intensities of damage were rated in visual comparison to untreated, unstressed controls of the same age (in the case of drought stress) or the same growth stage (in the case of cold stress). The intensity of damage was first assessed as a percentage (100%=plants have died, 0%=like control plants). […]

[2] = tested on: BRSNS (Brassica napus); experiment: Drought stress test on crop plants in greenhouse, spray application, efficacy vs untreated stressed control (BRSNS); settings: dosage 250 g/ha, mean of three results
Protocol: as §1, §2

[3] = tested on: TRZAS (Triticum aestivum); experiment: Drought stress test on crop plants in greenhouse, spray application, efficacy vs untreated stressed control (TRZAS); settings: dosage 25 g/ha, efficacy = percentage reduction in the intensity of damage vs untreated stressed control, mean of three results
Protocol: as §1, §2

COC(=O)C1(NS(=O)(=O)c2ccc(OC)cc2)CCC(OC)CC1 (stereo not drawn) [I.37-87, Methyl 4-methoxy-1-{[(4-methoxyphenyl)sulfonyl]amino}-cyclohexanecarboxylate]
>5%: EF (ZEAMX) [1] | EF (BRSNS): Efficacy = percentage reduction in the intensity of damage [2] | Efficacy (TRZAS) [3]
